Measurements reported in EP0840781B1, “METHODS AND DEVICES FOR THE REMOVAL OF PSORALENS FROM BLOOD PRODUCTS” (Cerus Corporation, priority 1995, dated 1996).
Values joined by “and” are separate entries in the source; they are usually repeats but may differ in a detail not shown here. Equal values may be shown once. Read-outs that look alike come from different tables or passages of the source.

Columns and labels:
R17 = assay: r-17 bacteriophage assay: R17 treated with compound and UVA, remaining titer by plaque count on Hfr 3000 bacteria; format: cell-based
Method: In the r-17 assay, the bacteriophage was placed in a solution with each compound tested and was then irradiated. The ability of the phage to subsequently infect bacteria and inhibit their growth was measured. The bacteriophage was selected for its relatively accessible nucleic acid such that the culture growth inhibition would accurately reflect nucleic acid damage by the test compounds. The bacteriophage assay for nucleic acid binding to test compounds offers a safe and inexpensive procedure to identify compounds likely to display efficient pathogen inactivation. Previous experiments support that the r-17 assay accurately measures HIV-1 sensitivity to similar compounds. […] Modified Eagles Medium (DMEM) to a final phage concentration of 10^9/mL. An aliquot (0.5 mL) was transferred to a 1.5 mL snap-top polyethylene tube. […] Louis, MO). The tubes were placed in a light device as described in EXAMPLE 1 and irradiated for between 1 and 10 minutes. […] To make the dilutions. a 0.100 mL aliquot of the irradiated solution of phage and test compound was added to the first dilution tube of 0.4 mL of media then 0.020 mL of this solution was added to the second tube of 0.5 mL medium (1:25). […] After the top agar hardened, the plates were incubated at 37 °C overnight. The plaque forming units were then counted the following morning and the titer of the phage remaining after phototreatment was calculated based on the dilution factors. The following controls were run: the "phage only" in which phage was not treated with test compound and not irradiated (listed as "starting titer" in the tables below); the "UV only" in which the phage was irradiated in the absence of test compound; and the "dark" control in which the phage/test compound solution was not irradiated before it was diluted and plated. Compounds described herein were also tested at a constant concentration for varying doses of UV light. […] The compound tested was added at the desired concentration and the samples were vortexed. […] Between each 1.0 J/cm^2 intervals, 100µL was removed from each sample and placed in the first corresponding dilution tube, then five sequential dilutions were performed for each compound tested, at all 3 irradiation doses, as described above in this example. […] The contents of each tube was poured into its own LB plate and the plates were incubated overnight at 37 °C. Plaques were counted by visual inspection the following morning.

HIV-1 = details: 1 Minute Irradiation
[1] = test system: Salmonella typhimurium tester strains TA97a, TA98, TA100, TA102, TA1537 and TA1538
Description: The second property that is important in testing a compound for use in methods described herein is mutagenicity. The most widely used mutagen/carcinogen screening assay is the Ames test. This assay is described by D.M. Maron and B.N. Ames in Mutation Research 113:173 ( 1983) and a specific screen is described in detail in Example 17, below. The Ames test utilizes several unique strains of Salmonella typhimurium that are histidine- dependent for growth and that lack the usual DNA repair enzymes. The frequency of normal mutations that render the bacteria independent of histidine (i.e., the frequency of spontaneous revertants) is low. The test allows one to evaluate the impact of a compound on this revenant frequency.
Because some substances are not mutagenic by themselves, but are converted to a mutagen by metabolic action, the compound to be tested is mixed with the bacteria on agar plates along with the liver extract. The liver extract serves to mimic metabolic action in an animal.
The mixtures are allowed to incubate. Growth of bacteria (if any) is checked by counting colonies.
In this example the compounds described herein are tested for their dark mutagenicity using an Ames assay. The procedures used for the Salmonella mutagenicity test as described in detail by Maron and Ames were followed exactly. Maron, D.M. and B.N. Ames, Mutation Research 113: 173 ( 1983). A brief description for each procedure is given here. The tester strains TA97a, TA98, TA 100, TA102, TA1537 and TA1538 were obtained from Dr. Ames. TA97a, TA98, TA1537 and TA1538 are frameshift tester strains. TA100 and TA102 are base-substitution tester strains. Upon receipt each strain was cultured under a variety of conditions to confirm the genotypes specific to the strains.
The first tests done with the strains were to determine the range of spontaneous reversion for each of the strains. With each mutagenicity experiment the spontaneous reversion of the tester strains to histidine independence was measured and expressed as the number of spontaneous revertants per plate. This served as the background controls.
For all experiments, the pre-incubation procedure was used. In this procedure one vial of each tester strain was thawed and 20 µL of this culture was added to 6 mL of Oxoid Nutrient Broth #2. This solution was allowed to shake for 10 hours at 37°C. In the pre-incubation procedure, 0.1 mL of this overnight culture was added to each of the required number of sterile test tubes. To half of the tubes 0.5 mL of a 10% S-9 solution containing Aroclor 1254 induced rat liver extract (Molecular Toxicology Inc., Annapolis, MD), and MgCl2, KCl, glucose-6-phosphate, NADP, and sodium phosphate buffer (Sigma, St. Louis, Missouri) were added. To the other half of the tubes 0.5 mL of 0.2M sodium phospate buffer, pH 7.4, was used in place of the S-9 mixture (the - S9 samples). Finally 0.1 mL of the test solution containing either 0, 0.1, 0.5, 1, 5, 10, 50, 100, 250, or 500 µg/mL of the test compound was added. The 0.7 mL mixture was vonexed and then pre-incubated while shaking for 20 minutes at 37°C. After shaking, 2 mL of molten top agar supplemented with histidine and biotin were added to the 0.7 mL mixture and immediately poured onto a minimal glucose agar plate (volume of base agar was 20 mL). The top agar was allowed 30 minutes to solidify and then the plates were inverted and incubated for 44 hours at 37°C. After incubation the number of revertant colonies on each plate were counted.
Maron and Ames (1983) describe the conflicting views with regard to the statistical treatment of data generated from the test.

Pseudomonas = assay: Bacterial inactivation by compound plus UVA, colony forming units; format: cell-based; details: 16 µM; 5 J/cm^2 irradiation; starting titer 6.5 logs
Method: In this example bacterial inactivation by the photoreactive nucleic acid binding compounds described herein was measured as a function of the ability of the bacteria to subsequently replicate. A gram negative bacteria was chosen as representative of the more difficult bacterial strains to inactivate.
The bacteria a strain of Pseudomonas, was inoculated into LB with a sterile loop and grown overnight in a shaker at 37°C. Based on the approximation that one OD at 610 nm is equivalent to 5 x 10^8 colony forming units (cfu)/mL, a 1:10 dilution of the culture was measured on a spectrophotometer. (manufactured by Shimatsu). The bacterial culture was added to a solution of 15% fetal bovine serum in DMEM to a final bacteria concentration of approximately 10^6/mL. An aliquot (0.8 mL) was transferred to a 1.5 mL snap-top polyethylene tube. An aliquot (0.004-0.040 mL) of the test compound stock solution prepared in water, ethanol or dimethylsulfoxide at 0.80-8.0 mM was added to the tube. Compounds were tested at a concentration of 16 µM. The tubes were placed in a light device as described in EXAMPLE I and irradiated with 1.3 J/cm^2, 1.2 J/cm^2, and finally 2.5 J/cm^2, for a total of 5 J/cm^2. 150 µL were removed for testing after each pulse period. Sterile 13 mL dilution tubes were prepared; each test compound required one tube with 0.4 mL of LB broth and four tubes containing 0.5 mL of LB broth. To make the dilutions, a 0.050 mL aliquot of the irradiated solution of phage and test compound was added to the first dilution tube of […] of media then 0.050 mL of this solution was added to the second tube of 0.5 mL medium (1:10). The second solution was then diluted serially (1:10) into the remaining tubes. 100 µL of the original sample and each dilution are plated separately onto LB agar plates and incubated at 37 °C overnight. The colony forming units were then counted the following morning and the titer of the phage remaining after phototreatment was calculated based on the dilution factors.
The following controls were run: the "bacteria only" in which bacteria was not treated with test compound and not irradiated (listed as "starting titer" in the tables below); the "UV only" in which the bacteria was irradiated in the absence of test compound. Dark controls were not performed here for reasons set forth in Example 12 above.

Male Balb/c mice = test system: Male Balb/c mice
Method: Male Balb/c mice were then injected with 0.1 ml of a compound solution via the tail vein. At least 3 mice were injected per dose level Saline only was used as a negative control. For a positive control, cyclophosphamide (cycloPP) was administered at a dose of 30 mg/kg. In the experimental group, the injections were repeated once per day for four days. In the positive control group, the sample was administered only once, on day three. On day 5, several microliters of blood were withdrawn from each subject and smeared on a glass slide. Cells were fixed in absolute methanol and stored in a slide rack.
For analysis, cells were stained with acridine orange and visualized under a fluorescence microscope by counting: (i) the number of reticulocytes per 5000 erythrocytes; and (ii) the number of micronucleated reticulocytes per 1000 reticulocytes. Reticulocytes were distinguished by their red fluorescence due to the presence of RNA. Micronuclei were distinguished by their green fluorescence due to the presence of DNA. The percentage of reticulocytes (%PCE) was then calculated. A decrease in the frequency of erythrocytes, represented by an increase in the percentage of reticulocytes, is an indication of bone marrow toxicity. The percentage of reticulocytes with micronuclei (%PCE with MN) was also calculated. An increase in %PCE with MN is a measure of elastogenicity.
After initial results were determined, the experiment was repeated using increased dose levels, until: (i) Micronucleus formation was seen; or (ii). Bone marrow toxicity was observed; or (iii) The lethal dose was reached; or (iv) A dose of 5 g/kg was administered.

[2] = 16 µM, 1 Minute irradiation = 1.2 J/cm^2, Starting Titer Approx. 7.1 Logs (Table 8)
[3] = 32 µM, HIV Starting Titer Approximately 5 Logs (Table 10)
[4] = 64 µM, HIV Starting Titer Approximately 5 Logs (Table 10)
[5] = two-fold or greater increase in revertants above background and dose dependent response
[6] = positive control, Dose 30 mg/kg administered only once, on day three, one value per experiment, 30 mg/kg

| Compound | R17 Log Kill (R17; [2]) | HIV Log Kill (HIV-1; [3]) | HIV Log Kill (HIV-1; [4]) | revertant colonies, TA100 +S9 ([1]; 5 µg/plate) | revertant colonies, TA100 -S9 ([1]; 5 µg/plate) | revertant colonies, TA1538 +S9 ([1]; 5 µg/plate) | revertant colonies, TA1538 -S9 ([1]; 5 µg/plate) | revertant colonies, TA100 +S9 ([1]; 10 µg/plate) | revertant colonies, TA100 -S9 ([1]; 10 µg/plate) | revertant colonies, TA1538 +S9 ([1]; 10 µg/plate) | revertant colonies, TA1538 -S9 ([1]; 10 µg/plate) | mutagenic response (Ames, summary) [1, 5] | other results |
| --- | --- | --- | --- | --- | --- | --- | --- | --- | --- | --- | --- | --- | --- |
| Cc1oc2c(C)c3oc(=O)cc(C)c3cc2c1CCN [Compound 3, 4'-(2-aminoethyl)-4,5',8-trimethylpsoralen] | >6.1 | 2.7 | >3.8 | -19 | 47 | 1 | 0 | 8 | 47 | 9 | -6 | no mutagenicity | R17 Log Kill (R17; 8 µM, 1 Minute Irradiation, Starting Titer Approx. 7.2 Logs (Table 7)): >6.2; R17 Log Kill (R17; 8 µM, 1 Minute irradiation = 1.2 J/cm^2, Starting Titer Approx. 7.1 Logs (Table 8)): 5.6; R17 Log Kill (R17; 16 µM, 1 Minute Irradiation, Starting Titer Approx. 7.2 Logs (Table 7)): >6.2; R17 Log Kill (R17; 32 µM, 1 Minute Irradiation, Starting Titer Approx. 7.2 Logs (Table 7)): >6.2; R17 inactivation efficiency compared with AMT (R17; varying concentration (Tables 7 and 8, FIGS. 6-10)): significantly higher inactivation efficiency than does AMT |
| Cc1oc2c(C)c3oc(=O)cc(C)c3cc2c1COCCCN [Compound 4, 4'-(5-amino-2-oxa)pentyl-4,5',8-trimethylpsoralen] | 2.3 | 2.2 | >3.6 | -10 | -41 | 7 | -2 | -3 | 3 | -2 | -2 | no mutagenicity | R17 Log Kill (R17; 32 µM, 1 Minute irradiation = 1.2 J/cm^2, Starting Titer Approx. 7.1 Logs (Table 8)): 4.3; R17 Log Kill (R17; 64 µM, 1 Minute irradiation = 1.2 J/cm^2, Starting Titer Approx. 7.1 Logs (Table 8)): >6.1 |
| COc1c2occc2cc2ccc(=O)oc12 [Compound 8-MOP, 8-Methoxypsoralen, reference compound] |  |  |  |  |  |  |  |  |  |  |  |  | log kill of bacteria (Pseudomonas) (Pseudomonas): 1.9 logs; R17 log kill (32 µM) (R17; 32 µM, 1 Minute Irradiation, Starting Titer Approx. 7.5 Logs (Table 6)): 0; base-substitution mutagenicity (Ames, summary) ([1]; two-fold or greater increase in revertants above background and dose dependent response, TA100, TA102): weak base-substitution mutagen in TA102 at 500µg/plate |
| Cc1cc(=O)oc2c(C)c3oc(CNCCCCN)c(C)c3cc12 [Compound 17, 5'-(6-amino-2-aza)hexyl-4,4',8-trimethylpsoralen] |  |  |  |  |  |  |  |  |  |  |  |  | efficiency at inactivating R17 compared with AMT (R17; constant concentration, varying doses of UV light 1.0-3.0 J/cm^2 (FIGS. 11-17)): more efficient at inactivating R17 than was AMT; HIV Log Kill (HIV-1; 16 µM, HIV Starting Titer Approximately 5.4 Logs (Table 11)): 1.2; HIV Log Kill (HIV-1; 32 µM, HIV Starting Titer Approximately 5.4 Logs (Table 11)): 2.9; HIV Log Kill (HIV-1; 64 µM, HIV Starting Titer Approximately 5.4 Logs (Table 11)): 3.4; bone marrow toxicity or micronucleus formation (Male Balb/c mice; experiment repeated using increased dose levels): the acutely lethal dose was reached before there were any signs of bone marrow toxicity or micronucleus formation |
| O=P1(N(CCCl)CCCl)NCCCO1 (centres unmarked) [CycloPP, cyclophosphamide, reference compound] |  |  |  |  |  |  |  |  |  |  |  |  | PCE + MN (%) (Male Balb/c mice; [6]): 1.98 ± 0.40% and 1.76 ± 0.64%; PCE/RBC (%) (Male Balb/c mice; [6]): 1.39 ± 0.41% and 1.65 ± 0.64% and 0.99 ±0.33% |
